Like-named read-outs stand apart in the source and are kept apart here.
Molecular target: GST-Bc1-2 (Homo sapiens, UniProt P10415)
Assay: Time Resolved-Fluorescence Resonance Energy Transfer (TR-FRET) Bcl-2 binding assay with F-Bak peptide probe
[1] = GST-Bcl-2 1 nM, F-Bak probe 100 nM, Tb-anti-GST 1 nM, '<' = below limit of detection, read-out: TR-FRET Bcl-2 Binding Ki

Chain of GST-Bc1-2 (P10415 whole entry): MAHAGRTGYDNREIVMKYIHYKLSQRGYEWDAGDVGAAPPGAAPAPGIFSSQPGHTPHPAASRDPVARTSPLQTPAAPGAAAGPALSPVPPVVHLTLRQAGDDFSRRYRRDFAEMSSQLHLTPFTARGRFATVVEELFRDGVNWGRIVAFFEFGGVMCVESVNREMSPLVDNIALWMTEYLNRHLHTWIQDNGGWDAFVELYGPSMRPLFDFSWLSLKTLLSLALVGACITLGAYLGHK

For CN1CCN(Nc2ccc(S(=O)(=O)NC(=O)c3ccc(N4CCN(CC5=C(c6ccc(Cl)cc6)CC(C)(C)CC5)CC4)cc3Oc3ccc4[nH]ccc4c3)cc2[N+](=O)[O-])CC1 [Example 91, 4-(4-{[2-(4-chlorophenyl)-4,4-dimethylcyclohex-1-en-1-yl]methyl}piperazin-1-yl)-2-(1H-indol-5-yloxy)-N-({4-[(4-methylpiperazin-1-yl)amino]-3-nitrophenyl}sulfonyl)benzamide], the Ki (TR-FRET Bcl-2 Binding Ki) was 0.487 nM and the Ki (read-out: Bcl-2 FRET ki) was 0.487 nM.

Work on CC1(C)CCC(CN2CCN(c3ccc(C(=O)NS(=O)(=O)c4ccc(OCC5COCCO5)c([N+](=O)[O-])c4)c(Oc4ccc5[nH]ccc5c4)c3)CC2)=C(c2ccc(Cl)cc2)C1 (stereo not drawn) [Example 92, 4-(4-{[2-(4-chlorophenyl)-4,4-dimethylcyclohex-1-en-1-yl]methyl}piperazin-1-yl)-N-{[4-(1,4-dioxan-2-ylmethoxy)-3-nitrophenyl]sulfonyl}-2-(1H-indol-5-yloxy)benzamide] yielded a Ki (TR-FRET Bcl-2 Binding Ki) of 0.128 nM, a Ki (read-out: Bcl-2 FRET Ki) of 0.128 nM and a Ki (read-out: Bcl-2 FRET ki) of 0.128 nM.

With COCCNc1ccc(S(=O)(=O)NC(=O)c2ccc(N3CCN(CC4=C(c5ccc(Cl)cc5)CC(C)(C)CC4)CC3)cc2Oc2ccc3[nH]ccc3c2)cc1S(=O)(=O)C(F)(F)F [Example 93, 4-(4-{[2-(4-chlorophenyl)-4,4-dimethylcyclohex-1-en-1-yl]methyl}piperazin-1-yl)-2-(1H-indol-5-yloxy)-N-({4-[(2-methoxyethyl)amino]-3-[(trifluoromethyl)sulfonyl]phenyl}sulfonyl)benzamide] the Ki [1] was 3.46 nM and the Ki (read-out: Bcl-2 FRET ki) was 35 nM.

Work on CC1(C)CCC(CN2CCN(c3ccc(C(=O)NS(=O)(=O)c4ccc(NCC5CCOCC5)c(S(=O)(=O)C(F)(F)F)c4)c(Oc4ccc5[nH]ccc5c4)c3)CC2)=C(c2ccc(Cl)cc2)C1 [Example 94, 4-(4-{[2-(4-chlorophenyl)-4,4-dimethylcyclohex-1-en-1-yl]methyl}piperazin-1-yl)-2-(1H-indol-5-yloxy)-N-({4-[(tetrahydro-2H-pyran-4-ylmethyl)amino]-3-[(trifluoromethyl)sulfonyl]phenyl}sulfonyl)benzamide] yielded a Ki (TR-FRET Bcl-2 Binding Ki) of 0.678 nM and a Ki (read-out: Bcl-2 FRET ki) of 0.678 nM.

CC1(C)CCC(CN2CCN(c3ccc(C(=O)NS(=O)(=O)c4ccc(NC5CCN(C(CF)CF)CC5)c([N+](=O)[O-])c4)c(Oc4cnc5[nH]ccc5c4)c3)CC2)=C(c2ccc(Cl)cc2)C1 [Example 95, 4-(4-{[2-(4-chlorophenyl)-4,4-dimethylcyclohex-1-en-1-yl]methyl}piperazin-1-yl)-N-{[4-({1-[2-fluoro-1-(fluoromethyl)ethyl]piperidin-4-yl}amino)-3-nitrophenyl]sulfonyl}-2-(1H-pyrrolo[2,3-b]pyridin-5-yloxy)benzamide] was tested, and the Ki [1] was 0.014 nM.

With CC1(C)CCC(CN2CCN(c3ccc(C(=O)NS(=O)(=O)c4cnc(OCC5(F)CCOCC5)c(Cl)c4)c(Oc4cnc5[nH]ccc5c4)c3)CC2)=C(c2ccc(Cl)cc2)C1 [Example 96, N-({5-chloro-6-[(4-fluorotetrahydro-2H-pyran-4-yl)methoxy]pyridin-3-yl}sulfonyl)-4-(4-{[2-(4-chlorophenyl)-4,4-dimethylcyclohex-1-en-1-yl]methyl}piperazin-1-yl)-2-(1H-pyrrolo[2,3-b]pyridin-5-yloxy)benzamide] the Ki [1] was 0.014 nM.

Compound CC1(C)CCC(CN2CCN(c3ccc(C(=O)NS(=O)(=O)c4ccc(NC5CCN(CC(F)F)CC5)c([N+](=O)[O-])c4)c(Oc4cnc5[nH]ccc5c4)c3)CC2)=C(c2ccc(Cl)cc2)C1 [Example 97, 4-(4-{[2-(4-chlorophenyl)-4,4-dimethylcyclohex-1-en-1-yl]methyl}piperazin-1-yl)-N-[(4-{[1-(2,2-difluoroethyl)piperidin-4-yl]amino}-3-nitrophenyl)sulfonyl]-2-(1H-pyrrolo[2,3-b]pyridin-5-yloxy)benzamide] has a Ki [1] of 0.017 nM.

CC1(C)CCC(CN2CCN(c3ccc(C(=O)NS(=O)(=O)c4ccc(NC5CCN(C6CC6)CC5)c([N+](=O)[O-])c4)c(Oc4cnc5[nH]ccc5c4)c3)CC2)=C(c2ccc(Cl)cc2)C1 [Example 98, 4-(4-{[2-(4-chlorophenyl)-4,4-dimethylcyclohex-1-en-1-yl]methyl}piperazin-1-yl)-N-({4-[(1-cyclopropylpiperidin-4-yl)amino]-3-nitrophenyl}sulfonyl)-2-(1H-pyrrolo[2,3-b]pyridin-5-yloxy)benzamide] showed a Ki [1] of under 0.01 nM.

For CC1(C)CCC(CN2CCN(c3ccc(C(=O)NS(=O)(=O)c4ccc(NCC5(N6CCOCC6)CCCCC5)c([N+](=O)[O-])c4)c(Oc4cnc5[nH]ccc5c4)c3)CC2)=C(c2ccc(Cl)cc2)C1 [Example 99, 4-(4-{[2-(4-chlorophenyl)-4,4-dimethylcyclohex-1-en-1-yl]methyl}piperazin-1-yl)-N-[(4-{[(1-morpholin-4-ylcyclohexyl)methyl]amino}-3-nitrophenyl)sulfonyl]-2-(1H-pyrrolo[2,3-b]pyridin-5-yloxy)benzamide], the Ki [1] was 0.233 nM.

In the case of CC1(C)CCC(CN2CCN(c3ccc(C(=O)NS(=O)(=O)c4ccc(N[C@H]5CC[C@H](N(C6CC6)C6CC6)CC5)c([N+](=O)[O-])c4)c(Oc4cnc5[nH]ccc5c4)c3)CC2)=C(c2ccc(Cl)cc2)C1 [Example 100, Trans-4-(4-{[2-(4-chlorophenyl)-4,4-dimethylcyclohex-1-en-1-yl]methyl}piperazin-1-yl)-N-[(4-{[4-(dicyclopropylamino)cyclohexyl]amino}-3-nitrophenyl)sulfonyl]-2-(1H-pyrrolo[2,3-b]pyridin-5-yloxy)benzamide], the Ki [1] is reported as under 0.01 nM.

In the case of CCN1CCOCC1COc1ncc(S(=O)(=O)NC(=O)c2ccc(N3CCN(CC4=C(c5ccc(Cl)cc5)CC(C)(C)CC4)CC3)cc2Oc2cnc3[nH]ccc3c2)cc1Br (stereo not drawn) [Example 102, N-({5-bromo-6-[(4-ethylmorpholin-3-yl)methoxy]pyridin-3-yl}sulfonyl)-4-(4-{[2-(4-chlorophenyl)-4,4-dimethylcyclohex-1-en-1-yl]methyl}piperazin-1-yl)-2-(1H-pyrrolo[2,3-b]pyridin-5-yloxy)benzamide], the Ki [1] is reported as 0.094 nM.

CCN1CCOCC1COc1ccc(S(=O)(=O)NC(=O)c2ccc(N3CCN(CC4=C(c5ccc(Cl)cc5)CC(C)(C)CC4)CC3)cc2Oc2cnc3[nH]ccc3c2)cc1[N+](=O)[O-] (stereo not drawn) [Example 103, 4-(4-{[2-(4-chlorophenyl)-4,4-dimethylcyclohex-1-en-1-yl]methyl}piperazin-1-yl)-N-({4-[(4-ethylmorpholin-3-yl)methoxy]-3-nitrophenyl}sulfonyl)-2-(1H-pyrrolo[2,3-b]pyridin-5-yloxy)benzamide] showed a Ki [1] of under 0.01 nM.

With CC1(C)CCC(CN2CCN(c3ccc(C(=O)NS(=O)(=O)c4ccc(N[C@H]5CCCN(C6CCOCC6)C5)c([N+](=O)[O-])c4)c(Oc4cnc5[nH]ccc5c4)c3)CC2)=C(c2ccc(Cl)cc2)C1 [Example 105, 4-(4-{[2-(4-chlorophenyl)-4,4-dimethylcyclohex-1-en-1-yl]methyl}piperazin-1-yl)-N-[(3-nitro-4-{[(3S)-1-tetrahydro-2H-pyran-4-ylpiperidin-3-yl]amino}phenyl)sulfonyl]-2-(1H-pyrrolo[2,3-b]pyridin-5-yloxy)benzamide] the Ki [1] was under 0.01 nM.

CC1(C)CCC(CN2CCN(c3ccc(C(=O)NS(=O)(=O)c4cnc(NCC5CCOCC5)c(C#N)c4)c(Oc4cnc5[nH]ccc5c4)c3)CC2)=C(c2ccc(Cl)cc2)C1 [Example 106, 4-(4-{[2-(4-chlorophenyl)-4,4-dimethylcyclohex-1-en-1-yl]methyl}piperazin-1-yl)-N-({5-cyano-6-[(tetrahydro-2H-pyran-4-ylmethyl)amino]pyridin-3-yl}sulfonyl)-2-(1H-pyrrolo[2,3-b]pyridin-5-yloxy)benzamide] showed a Ki [1] of 0.895 nM.

CC1(C)CCC(CN2CCN(c3ccc(C(=O)NS(=O)(=O)c4ccc(NCC5(N)CCOCC5)c([N+](=O)[O-])c4)c(Oc4cnc5[nH]ccc5c4)c3)CC2)=C(c2ccc(Cl)cc2)C1 [Example 108, N-[(4-{[(4-aminotetrahydro-2H-pyran-4-yl)methyl]amino}-3-nitrophenyl)sulfonyl]-4-(4-{[2-(4-chlorophenyl)-4,4-dimethylcyclohex-1-en-1-yl]methyl}piperazin-1-yl)-2-(1H-pyrrolo[2,3-b]pyridin-5-yloxy)benzamide] was tested, and the Ki [1] was under 0.01 nM.

Compound CC1(C)CCC(CN2CCN(c3ccc(C(=O)NS(=O)(=O)c4cnc(N[C@H]5CC[C@H](N6CCOCC6)CC5)c(C#N)c4)c(Oc4cnc5[nH]ccc5c4)c3)CC2)=C(c2ccc(Cl)cc2)C1 [Example 109, Trans-4-(4-{[2-(4-chlorophenyl)-4,4-dimethylcyclohex-1-en-1-yl]methyl}piperazin-1-yl)-N-({5-cyano-6-[(4-morpholin-4-ylcyclohexyl)amino]pyridin-3-yl}sulfonyl)-2-(1H-pyrrolo[2,3-b]pyridin-5-yloxy)benzamide] has a Ki [1] of 0.127 nM.

CC1(C)CCC(CN2CCN(c3ccc(C(=O)NS(=O)(=O)c4ccc(NCC5CCOCC5)c(C#N)c4)c(Oc4cnc5[nH]ccc5c4)c3)CC2)=C(c2ccc(Cl)cc2)C1 [Example 110, 4-(4-{[2-(4-chlorophenyl)-4,4-dimethylcyclohex-1-en-1-yl]methyl}piperazin-1-yl)-N-({3-cyano-4-[(tetrahydro-2H-pyran-4-ylmethyl)amino]phenyl}sulfonyl)-2-(1H-pyrrolo[2,3-b]pyridin-5-yloxy)benzamide] was tested, and the Ki [1] was 0.557 nM.

CC1(C)CCC(CN2CCN(c3ccc(C(=O)NS(=O)(=O)c4ccc(N[C@H]5CC[C@@H](N6CCOCC6)C5)c([N+](=O)[O-])c4)c(Oc4cnc5[nH]ccc5c4)c3)CC2)=C(c2ccc(Cl)cc2)C1 [Example 111, 4-(4-{[2-(4-chlorophenyl)-4,4-dimethylcyclohex-1-en-1-yl]methyl}piperazin-1-yl)-N-[(4-{[(1S,3R)-3-morpholin-4-ylcyclopentyl]amino}-3-nitrophenyl)sulfonyl]-2-(1H-pyrrolo[2,3-b]pyridin-5-yloxy)benzamide] gave a Ki [1] of under 0.01 nM.

With CC1(C)CCC(CN2CCN(c3ccc(C(=O)NS(=O)(=O)c4ccc(N[C@@H]5CC[C@H](N6CCOCC6)C5)c([N+](=O)[O-])c4)c(Oc4cnc5[nH]ccc5c4)c3)CC2)=C(c2ccc(Cl)cc2)C1 [Example 112, 4-(4-{[2-(4-chlorophenyl)-4,4-dimethylcyclohex-1-en-1-yl]methyl}piperazin-1-yl)-N-[(4-{[(1R,3S)-3-morpholin-4-ylcyclopentyl]amino}-3-nitrophenyl)sulfonyl]-2-(1H-pyrrolo[2,3-b]pyridin-5-yloxy)benzamide] the Ki [1] was under 0.01 nM.

Reference: US8580794B2 (AbbVie Inc., priority 2009, dated 2013)
